Results as given in ChEMBL document CHEMBL1201862, “PubChem BioAssay data set” (2004).
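Compound exposure: 48 hours, 5 concentrations, 96-well plates. GI50 is the concentration that inhibits growth by half.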 The source made the active and inactive calls. No stated cut-off is given here; in the data, active = GI50 up to about 1.1 µM and inactive = higher.

How the values were obtained:
Assay in all cases: DTP human tumour cell line panel, 48 h
SNB-19 = system: SNB-19
PC-3 = system: PC-3
SF-268 = system: SF-268
MDA-N = system: MDA-N
SF-539 = system: SF-539
MOLT-4 = system: MOLT-4
NCI-H460 = system: NCI-H460
HCT-116 = system: HCT-116
DU-145 = system: DU-145
MDA-MB-231 = system: MDA-MB-231
SF-295 = system: SF-295
MCF7 = system: MCF7
OVCAR-4 = system: OVCAR-4
HL-60 = system: HL-60
SW-620 = system: SW-620
SN12C = system: SN12C
SK-OV-3 = system: SK-OV-3
NCI-H23 = system: NCI-H23
SK-MEL-28 = system: SK-MEL-28
UACC-257 = system: UACC-257
OVCAR-5 = system: OVCAR-5
OVCAR-3 = system: OVCAR-3
CCRF-CEM = system: CCRF-CEM
TK-10 = system: TK-10
HT-29 = system: HT-29
NCI/ADR-RES = system: NCI/ADR-RES
NCI-H522 = system: NCI-H522
A498 = system: A498
Malme-3M = system: Malme-3M
HCT-15 = system: HCT-15
K562 = system: K562
COLO 205 = system: COLO 205
T47D = system: T47D
UO-31 = system: UO-31
KM12 = system: KM12
OVCAR-8 = system: OVCAR-8
CAKI-1 = system: CAKI-1
SK-MEL-2 = system: SK-MEL-2
MDA-MB-435 = system: MDA-MB-435
M14 = system: M14
U-251 = system: U-251
RPMI-8226 = system: RPMI-8226
EKVX = system: EKVX
UACC-62 = system: UACC-62
RXF 393 = system: RXF 393
A549 = system: A549
LOX IMVI = system: LOX IMVI
HOP-62 = system: HOP-62
NCI-H226 = system: NCI-H226
HOP-92 = system: HOP-92
ACHN = system: ACHN
IGROV-1 = system: IGROV-1
BT-549 = system: BT-549
Hs-578T = system: Hs-578T
786-0 = system: 786-0
SNB-75 = system: SNB-75
HCC 2998 = system: HCC 2998
SK-MEL-5 = system: SK-MEL-5

C#CCn1c(=O)c(I)cn(/C(=C/C(=O)OCC)C(=O)OCC)c1=O was tested, and the GI50 (SNB-19) was 18.3 µM (inactive), the GI50 (PC-3) was 5.06 µM (inactive) and the GI50 (SF-268) was 9.44 µM (inactive). For the same molecule, the GI50 (MDA-N) was 3.37 µM (inactive), the GI50 (SF-539) was 7.21 µM (inactive) and the GI50 (MOLT-4) was < 0.0195 µM (active). For the same molecule, the GI50 (NCI-H460) was 23.4 µM (inactive), the GI50 (HCT-116) was 1.85 µM (inactive) and the GI50 (DU-145) was 10 µM (inactive). The GI50 (MDA-MB-231) was 15.2 µM (inactive), the GI50 (SF-295) was 39.7 µM (inactive) and the GI50 (MCF7) was 2.12 µM (inactive). The GI50 (OVCAR-4) was 8.22 µM (inactive), the GI50 (HL-60) was 1.64 µM (inactive) and the GI50 (SW-620) was 1.18 µM (inactive). For the same molecule, the GI50 (SN12C) was 15.9 µM (inactive), the GI50 (SK-OV-3) was 17.9 µM (inactive) and the GI50 (NCI-H23) was 15.3 µM (inactive). The GI50 (SK-MEL-28) was 8 µM (inactive), the GI50 (UACC-257) was 3.06 µM (inactive) and the GI50 (OVCAR-5) was 16.2 µM (inactive). The GI50 (OVCAR-3) was 1.78 µM (inactive), the GI50 (CCRF-CEM) was 3.53 µM (inactive) and the GI50 (TK-10) was 0.3 µM (active). For the same molecule, the GI50 (HT-29) was 12.6 µM (inactive), the GI50 (NCI/ADR-RES) was 18.9 µM (inactive) and the GI50 (NCI-H522) was 0.649 µM (active). For the same molecule, the GI50 (A498) was 19.1 µM (inactive), the GI50 (Malme-3M) was 1.52 µM (inactive) and the GI50 (HCT-15) was 2.74 µM. The GI50 (K562) was 0.659 µM (active), the GI50 (COLO 205) was 0.667 µM (active) and the GI50 (T47D) was 0.818 µM (active). For the same molecule, the GI50 (UO-31) was 1.53 µM (inactive), the GI50 (KM12) was 18 µM (inactive) and the GI50 (OVCAR-8) was 3.56 µM (inactive). For the same molecule, the GI50 (CAKI-1) was 1.86 µM (inactive), the GI50 (SK-MEL-2) was 15.5 µM (inactive) and the GI50 (MDA-MB-435) was 7.6 µM (inactive). The GI50 (M14) was 1.78 µM (inactive), the GI50 (U-251) was 16.6 µM (inactive) and the GI50 (RPMI-8226) was 0.746 µM (active). The GI50 (EKVX) was 2.94 µM (inactive), the GI50 (UACC-62) was 5.42 µM (inactive) and the GI50 (RXF 393) was 3.61 µM (inactive). For the same molecule, the GI50 (A549) was 18 µM (inactive), the GI50 (LOX IMVI) was 4.95 µM (inactive) and the GI50 (HOP-62) was 17.5 µM (inactive). For the same molecule, the GI50 (NCI-H226) was 25.7 µM (inactive), the GI50 (HOP-92) was 1.75 µM (inactive) and the GI50 (ACHN) was 1.67 µM (inactive). The GI50 (IGROV-1) was 15.7 µM (inactive), the GI50 (BT-549) was 11.5 µM (inactive) and the GI50 (Hs-578T) was 15 µM (inactive). For the same molecule, the GI50 (786-0) was 1.63 µM (inactive) and the GI50 (SNB-75) was 17.2 µM (inactive).
For CC(=S)N/C=C1/C(=O)C=C(C)OC1=O, the GI50 (SNB-19) was > 100 µM (inactive), the GI50 (PC-3) was > 100 µM (inactive) and the GI50 (SF-268) was > 100 µM (inactive). The GI50 (MDA-N) was > 100 µM (inactive), the GI50 (SF-539) was > 100 µM (inactive) and the GI50 (MOLT-4) was > 100 µM (inactive). For the same molecule, the GI50 (NCI-H460) was > 100 µM (inactive), the GI50 (HCT-116) was > 100 µM (inactive) and the GI50 (DU-145) was > 100 µM (inactive). For the same molecule, the GI50 (MDA-MB-231) was > 100 µM (inactive), the GI50 (SF-295) was > 100 µM (inactive) and the GI50 (HCC 2998) was > 100 µM (inactive). For the same molecule, the GI50 (MCF7) was > 100 µM (inactive), the GI50 (OVCAR-4) was > 100 µM (inactive) and the GI50 (HL-60) was > 100 µM (inactive). For the same molecule, the GI50 (SW-620) was > 100 µM (inactive), the GI50 (SN12C) was > 100 µM (inactive) and the GI50 (SK-OV-3) was > 100 µM (inactive). The GI50 (SK-MEL-5) was 90.2 µM (inactive), the GI50 (NCI-H23) was > 100 µM (inactive) and the GI50 (UACC-257) was > 100 µM (inactive). For the same molecule, the GI50 (OVCAR-5) was > 100 µM (inactive), the GI50 (OVCAR-3) was > 100 µM (inactive) and the GI50 (CCRF-CEM) was > 100 µM (inactive). The GI50 (TK-10) was > 100 µM (inactive), the GI50 (HT-29) was > 100 µM (inactive) and the GI50 (NCI/ADR-RES) was > 100 µM (inactive). The GI50 (NCI-H522) was > 100 µM (inactive), the GI50 (A498) was > 100 µM (inactive) and the GI50 (HCT-15) was over 100 µM. The GI50 (K562) was > 100 µM (inactive), the GI50 (COLO 205) was > 100 µM (inactive) and the GI50 (T47D) was > 100 µM (inactive). For the same molecule, the GI50 (UO-31) was > 100 µM (inactive), the GI50 (KM12) was > 100 µM (inactive) and the GI50 (OVCAR-8) was > 100 µM (inactive). The GI50 (CAKI-1) was > 100 µM (inactive), the GI50 (SK-MEL-2) was > 100 µM (inactive) and the GI50 (MDA-MB-435) was > 100 µM (inactive). For the same molecule, the GI50 (M14) was > 100 µM (inactive), the GI50 (U-251) was > 100 µM (inactive) and the GI50 (RPMI-8226) was > 100 µM (inactive). The GI50 (EKVX) was > 100 µM (inactive), the GI50 (UACC-62) was > 100 µM (inactive) and the GI50 (RXF 393) was > 100 µM (inactive). For the same molecule, the GI50 (A549) was > 100 µM (inactive), the GI50 (LOX IMVI) was > 100 µM (inactive) and the GI50 (HOP-62) was > 100 µM (inactive). For the same molecule, the GI50 (NCI-H226) was > 100 µM (inactive), the GI50 (HOP-92) was > 100 µM (inactive) and the GI50 (ACHN) was > 100 µM (inactive). The GI50 (IGROV-1) was > 100 µM (inactive), the GI50 (BT-549) was > 100 µM (inactive) and the GI50 (Hs-578T) was > 100 µM (inactive). For the same molecule, the GI50 (786-0) was > 100 µM (inactive) and the GI50 (SNB-75) was 54.3 µM (inactive).
